Data as given in patent publication US4177269A, “Novel 17-esters of 17α-hydroxy gestogens, compositions containing such compounds, processes for their preparation and methods of treatment therewith” (Aktiebolaget Leo, priority 1976, dated 1979).

Columns and labels:
[1] = Walker carcinosarcoma 256 tumour growth inhibition in rats; format: in vivo, Sprague-Dawley rats; design: ED50: unit: mg/kg; details: rat, in vivo, po, daily p.o. for 5 days
Excerpt: (§1) LD50 is the dose that causes a 50 percent lethality of the animals, and ED50 is the dose that causes a 50 percent reduction of tumour size.
(§2) The experimental design and the interpretation of the results are in accordance with the standards set by the CCNSC (Cancer Chemotherpy Reports, January 1959 and December 1962).
(§3) Walker carcinosarcoma 256.
(§4) Experimental animals: Sprague-Dawley rats.
(§5) Tumour implant: Tumour pieces with 2-4 mm diameter, sub-
(§6) Therapy: Daily p.o. administration for 5 days starting on
(§7) the day following implantation.
(§8) Termination: The animals are killed on the 9th day.
(§9) Evaluation: Weights of tumours of test animals are compared
(§10) with those of control animals.

[2] = tested on: Walker carcinosarcoma 256; assay: as above; format: in vivo, Sprague-Dawley rats; design: ED50: unit: mg/kg; details: daily p.o. for 5 days; for antitumour activity: result in words
Excerpt: as §1, §2, §3, §4, §5, §6, §7, §8, §9, §10

[3] = tested on: Ehrlich ascites tumour, ELD hyperdiploid; assay: Ehrlich ascites tumour, ELD hyperdiploid (46 chromosomes), growth inhibition in mice; format: in vivo, SPF NMRI mice; details: one i.p. injection, result in words
Excerpt: as §2
Ehrlich ascites tumour, ELD hyperdiploid
Experimental animals: SPF NMRI mice.
Tumour implant: 2 × 10^6 tumour cells i.p.
(§11) Therapy: One injection i.p. on the day following implanta-
(§12) Termination: The animals are killed on the 8th day.
Evaluation: Weight of tumours of test animals compared with
those of control animals.

[4] = Hepatome AH 130 tumour growth inhibition in rats; format: in vivo, Sprague-Dawley rats; design: ED50: unit not given here; details: rat, in vivo, ip, one i.p. injection; for LD50: dose causing 50 percent lethality, column head not given; for selectivity ratio: read-out: T.I. (LD50/ED50)
Excerpt: as §1, §2, §4
(§13) Tumour implant: 5 × 10^6 tumour cells i.p.
as §11, §12, §9, §10

Hepatome AH 130 = Hepatome AH 130 tumour growth inhibition in rats; format: in vivo, Sprague-Dawley rats; design: ED50: unit not given here; details: one i.p. injection; for ED50: dose causing 50 percent reduction of tumour size, killed 8th day; for antitumour activity: result in words
Excerpt: as §1, §2, §4, §13, §11, §12, §9, §10

| Structure (SMILES) | antitumour activity [3] | antitumour activity [2] | other results |
| --- | --- | --- | --- |
| CC(=O)[C@@]1(OC(=O)CCCOC(=O)Cc2ccc(N(CCCl)CCCl)cc2)CC[C@H]2[C@@H]3CCC4=CC(=O)CC[C@]4(C)[C@H]3CC[C@@]21C [3:4, 17α-/4-(4-(N,N-bis(2-chloroethyl)amino)phenylacetoxyy)butanoyloxy/pregn-4-ene-3,20-dione] | exhibit antitumour activity |  | LD50 ([1]; dose causing 50 percent lethality): 80 mg/kg; selectivity ratio ([1]; read-out: T.I. (LD50/ED50)): 20; ED50 ([2]; dose causing 50 percent reduction of tumour size, killed 9th day): 4; LD50 [4]: 50 mg/kg; selectivity ratio [4]: 25; ED50 (Hepatome AH 130): 2 |
| CC(=O)[C@@]1(OC(=O)COC(=O)CCCc2ccc(N(CCCl)CCCl)cc2)CC[C@H]2[C@@H]3C=C(Cl)C4=CC(=O)[C@@H]5C[C@@H]5[C@]4(C)[C@H]3CC[C@@]21C [3:11, 6-chloro-17α-[4-(4-(N,N-bis(2-chloroethyl)amino)phenyl)butanoyloxyacetoxy]-1α,2α-methylenepregna-4,6-diene-3,20-dione] | exhibit antitumour activity | exhibit antitumour activity |  |
| CC(=O)[C@@]1(OC(=O)COC(=O)CCCc2ccc(N(CCCl)CCCl)cc2)CC[C@H]2[C@@H]3C[C@H](C)C4=CC(=O)CC[C@]4(C)[C@H]3CC[C@@]21C [3:16, 17α-[4-(4-(N,N-bis(2-chloroethyl)amino)phenyl)butanoyloxyacetoxy]-6α-methylpregn-4-ene-3,20-dione] | exhibit antitumour activity | exhibit antitumour activity |  |
| CC(=O)[C@@]1(OC(=O)COC(=O)c2cccc(N(CCCl)CCCl)c2)CC[C@H]2[C@@H]3CCC4=CC(=O)CC[C@]4(C)[C@H]3CC[C@@]21C [3:6, 17α-/3-(N,N-bis(2-chloroethyl)amino)benzoyloxyacetoxy/pregn-4-ene-3,20-dione] | exhibit antitumour activity | exhibit antitumour activity | antitumour activity (Hepatome AH 130): exhibit antitumour activity |
| CC(=O)[C@@]1(OC(=O)CCCOC(=O)CCCc2ccc(N(CCCl)CCCl)cc2)CC[C@H]2[C@@H]3C[C@H](C)C4=CC(=O)CC[C@]4(C)[C@H]3CC[C@@]21C [3:21, 17α-[4-(4-(4-(N,N-bis(2-chloroethyl)amino)phenyl)butanoyloxy)butanoyloxy]-6α-methylpregn-4-ene-3,20-dione] |  | exhibit antitumour activity |  |
| CC(=O)[C@@]1(OC(=O)COC(=O)[C@@H](N)Cc2ccc(N(CCCl)CCCl)cc2)CC[C@H]2[C@@H]3CCC4=CC(=O)CC[C@]4(C)[C@H]3CC[C@@]21C [3:12, 17-[(2S)-2-amino-3-(4-(N,N-bis(2-chloroethyl)amino)phenyl)propanoyloxyacetoxy]pregn-4-ene-3,20-dione] | exhibit antitumour activity | exhibit antitumour activity |  |
| CC(=O)[C@@]1(OC(=O)COC(=O)c2ccc(C)c(N(CCCl)CCCl)c2)CC[C@H]2[C@@H]3C=C(Cl)C4=CC(=O)CC[C@]4(C)[C@H]3CC[C@@]21C [3:18, 6-chloro-17α-[3-(N,N-bis(2-chloroethyl)amino)-4-methylbenzoyloxyacetoxy]pregna-4,6-diene-3,20-dione] |  | exhibit antitumour activity |  |
| CC(=O)[C@@]1(OC(=O)CCCNC(=O)Cc2ccc(N(CCCl)CCCl)cc2)CC[C@H]2[C@@H]3CCC4=CC(=O)CC[C@]4(C)[C@H]3CC[C@@]21C [6:1, 17α-/4-(4-(N,N-bis(2-chloroethyl)amino)phenylacetylamino)butanoyloxy/pregn-4-ene-3,20-dione] | exhibit antitumour activity | exhibit antitumour activity |  |
| CC(=O)[C@@]1(OC(=O)COC(=O)CSc2ccc(N(CCCl)CCCl)cc2)CC[C@H]2[C@@H]3CCC4=CC(=O)CC[C@]4(C)[C@H]3CC[C@@]21C [3:5, 17α-/4-(N,N-bis(2-chloroethyl)amino)phenylthioacetoxyacetoxy/pregn-4-ene-3,20-dione] | exhibit antitumour activity | exhibit antitumour activity | LD50 [4]: > 250 mg/kg; selectivity ratio [4]: > 5; ED50 (Hepatome AH 130): 50 |
| CC(=O)N[C@@H](Cc1ccc(N(CCCl)CCCl)cc1)C(=O)OCC(=O)O[C@]1(C(C)=O)CC[C@H]2[C@@H]3CCC4=CC(=O)CC[C@]4(C)[C@H]3CC[C@@]21C [3:14, 17-[(2S)-2-acetamido-3-(4-(N,N-bis(2-chloroethyl)amino)phenyl)propanoyloxyacetoxy]pregn-4-ene-3,20-dione] | exhibit antitumour activity | exhibit antitumour activity |  |
| CC(=O)[C@@]1(OC(=O)COC(=O)Oc2ccc(N(CCCl)CCCl)cc2)CC[C@H]2[C@@H]3CCC4=CC(=O)CC[C@]4(C)[C@H]3CC[C@@]21C [5:4, 17α-[4-(N,N-bis(2-chloroethyl)amino)phenoxycarbonyloxyacetoxy]pregn-4-ene-3,20-dione] | exhibit antitumour activity |  | antitumour activity (Hepatome AH 130): exhibit antitumour activity |
